One data set has as its system SKOV-3 cells. As to the kind of experiment: MTT proliferation assay, SKOV-3. The conditions noted are these: 10^−7 M, 48 hours, 100% control cells.
In data set [1] the test system is 24-hydroxylase promoter, CYP24A1 (pCYP24A1-Luc). As to the kind of experiment: Transactivation reporter assay (pCYP24A1-Luc) in MCF-7 cells. On the technique in general: A reporter such as luciferase makes a cellular process visible.
Procedure: MCF-7 cells were transfected with the reporter vector of 24-hydroxylase (pCYP24A1-Luc vector) for 24 hours. […] The experiments were performed at least twice. The error bars represent the standard deviation (SD).
A short description of data set [2]: Calcaemic effects in mice at 0.3 μg/kg. It is filed as in vivo. Here is the method:
FIG. 8. […] 1,25D and the various analogues were injected intraperitoneally every 2 days for 21 days at a dose of 0.3 μg/Kg. After treatment the calcium levels in the serum were evaluated and the values were represented as mean±SD in […].
(§1) Calcium mobilization of analogues was determined in 28 male CD-1 mice (6-8 weeks old). 6 Groups of 4 mice each were established, which mice were intraperitoneally (ip) injected with 0.3 μg/kg weight of each analogue or 1,25D dissolved in sesame oil every two days for 3 weeks. A seventh group of 4 mice treated with the carrier (sesame oil) served as controls. Calcium levels in blood were determined by QuantiChomCalciumAssay Kit (BioAssaySystems, Hayward, Calif., USA). In addition, a dose-response assay was performed to assess the effect of administration of the analogues PG-403 and PG136p and hormone (1,25D) at different doses on calcium levels. This assay was performed in male mice (5 mice per group), and the doses used were: 0.1, 0.5, 1, and 5 μg/kg weight of each analogue or 1,25D, i.p. administered every two days for 21 days. In addition, a control group (mice treated with sesame oil) was used.

For a further data set, the system named is PC-3 cells. As to the kind of experiment: MTT proliferation assay, PC-3. As to conditions: 10^−7 M, 48 hours, 100% control cells. Background: Tetrazolium dyes change colour on reduction, which living cells bring about.
Data set [3] deals with MCF-7 cells. In words: 3D cell culture on matrigel (spheroid size), MCF-7. It is filed as cell-based, human. How it is done: FIG. 7. MCF-7 cells were shown for 10 days on a matrigel bed until they formed a 3D cellular structure. […] After treatment, the spheroids were stained with DAPI (4′,6-diamino-2-phenylindole) for 1 hour and photographed under an inverted microscope with ultraviolet light. The size of these spheroids was measured and the values were represented as mean±SD in relative units. […] Those cells treated with the carrier were considered as the control value.
For 3D cell culture, a cushion of 200 μl of Matrigel (BD Biosciences) was used in each of the wells of multi-well plates of 24 wells. They were incubated at 37° C. for 20 minutes for their solidification and subsequently the cell suspension (5×10^3 cells per 100 μl volume of medium) was loaded onto the matrigel solidified and another incubation at 37° C. was performed for 30 minutes so that the cells penetrated properly on the matrigel base. 500 μl of DMEM medium were added to each well, and the cells were maintained in culture for 10 days. At the end of this time, the cells were started to be treated with each of the 5 analogues used and 1,25D.

The target of another data set is T1, vitamin D receptor (VDR) (Homo sapiens, UniProt P11473).
T1 construct: purchased Invitrogen
T1 sequence (P11473 1-427): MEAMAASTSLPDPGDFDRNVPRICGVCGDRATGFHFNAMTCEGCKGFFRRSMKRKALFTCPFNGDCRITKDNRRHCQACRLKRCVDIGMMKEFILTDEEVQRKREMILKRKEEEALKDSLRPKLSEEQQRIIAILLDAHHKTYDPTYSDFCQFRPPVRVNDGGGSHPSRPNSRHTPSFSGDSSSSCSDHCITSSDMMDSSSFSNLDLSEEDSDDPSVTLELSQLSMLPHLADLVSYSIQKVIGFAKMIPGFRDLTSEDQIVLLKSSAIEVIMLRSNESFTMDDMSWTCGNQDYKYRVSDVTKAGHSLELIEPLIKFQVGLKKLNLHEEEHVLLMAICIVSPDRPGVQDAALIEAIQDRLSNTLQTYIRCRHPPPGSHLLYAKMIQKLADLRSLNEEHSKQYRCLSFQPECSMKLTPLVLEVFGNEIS
In words: Competitive binding to vitamin D receptor (Polarscreen VDR competitor assay, fluorescence polarisation). Here is the method: FIG. 1. […] The values represent the mean of at least two experiments.
Polarised fluorescence was determined in 384-well black plates for 200 ms/well using a Mithras LB 940 device (Berthold Technologies).
(In general: Fluorescence polarisation rises when a labelled molecule tumbles more slowly, as on binding a larger partner.)

The subject of a further data set is MDA-MB-231-Luc cells. In words: In vivo anti-tumour activity, MDA-MB-231-Luc tumours in SCID mice. The source says:
FIG. 13. In this figure the results obtained by treating a group of 32 mice with the analogue PG136 after being injected with MDA-MB-231-Luc cells are shown.
FIG. 14. The survival rate of mice treated with the analogue PG136 after being injected with MDA-MB-231-Luc cells is shown and compared with control mice.
In order to study the anti-tumour activity of the analogue PG136 in vivo, 32 immunosuppressed CB17-Prkdc^scid 8 weeks old female mice were used, called SCID (PRBB, Barcelona, Spain). These mice were injected subcutaneously with 5×10^6 breast tumour cells MCF-7 and MDA-MB-231 stably transfected with plasmid pcDNA3-Luciferase coding for the gene of the luciferase (called MCF-7-Luc and MDA-MB-231-Luc). Two groups of 8 mice were injected with cells MCF-7-Luc and other 2 groups of 8 mice with MDA-MB-231-Luc cells. Fifteen days after injection, the mice were started to be treated intraperitoneally every 2 days for 28 days with the analogue PG136 at a dose of 5 μ/kg dissolved in sesame oil used as carrier. The control group is treated in the same way and with the same range with sesame oil. Tumour size is determined every seven days once started the treatment using an in vivo imaging system (IVIS, Caliper Life Sciences, Alameda, USA), and the tumour size is calculated using a map of intensities retrieved using the Living Image (Caliper Life Sciences) software. […]

The nature of data set [4]: Dose-response assay of serum calcium in mice. It is filed as in vivo. As to conditions: for Serum calcium versus controls, analogues: doses 0.1, 0.5, 1 and 5 μg/kg ip every 2 days for 21 days. How it is done: FIG. 9. […] 1,25D (dose of 0.3 μg/kg) and analogues (doses of 0.1, 0.5, 1 and 5 μg/kg) were injected intraperitoneally every 2 days for 21 days. After treatment the calcium levels in the serum were evaluated and the values were represented as mean±SD in […].
as §1

In another data set the test system is HaCaT cells. As to the kind of experiment: MTT proliferation assay, HaCaT. The conditions noted are these: 10^−7 M, 48 hours, 100% control cells.
The subject of the next data set is MCF-7-Luc cells. As to the kind of experiment: In vivo anti-tumour activity, MCF-7-Luc tumours in SCID mice. As to conditions: 5 μ/kg ip every 2 days for 28 days, p≦0.05. How it is done: FIG. 12. In this figure the results obtained by treating a group of 32 mice with the analogue PG136 after being injected with MCF-7-Luc cells are shown.
In order to study the anti-tumour activity of the analogue PG136 in vivo, 32 immunosuppressed CB17-Prkdc^scid 8 weeks old female mice were used, called SCID (PRBB, Barcelona, Spain). These mice were injected subcutaneously with 5×10^6 breast tumour cells MCF-7 and MDA-MB-231 stably transfected with plasmid pcDNA3-Luciferase coding for the gene of the luciferase (called MCF-7-Luc and MDA-MB-231-Luc). Two groups of 8 mice were injected with cells MCF-7-Luc and other 2 groups of 8 mice with MDA-MB-231-Luc cells. Fifteen days after injection, the mice were started to be treated intraperitoneally every 2 days for 28 days with the analogue PG136 at a dose of 5 μ/kg dissolved in sesame oil used as carrier. The control group is treated in the same way and with the same range with sesame oil. Tumour size is determined every seven days once started the treatment using an in vivo imaging system (IVIS, Caliper Life Sciences, Alameda, USA), and the tumour size is calculated using a map of intensities retrieved using the Living Image (Caliper Life Sciences) software. In the case of the 2 groups of mice injected with MDA-MB-231-Luc cells, the experiment continued until day 60 and Kaplan-Meier Survival estimates were made.

The nature of data set [5]: Body weight of mice in the dose-response assay. It is filed as in vivo. As to conditions: mice, 0.1, 0.5, 1 and 5 μg/kg ip every 2 days for 21 days. Here is the method:
FIG. 10. […] 1,25D (dose of 0.3 μg/kg) and analogues (doses of 0.1, 0.5, 1 and 5 μg/kg) were injected intraperitoneally every 2 days for 21 days. Animals were weighed every two days during treatment. The values were represented as mean±SD in […].
In this experiment, also the weight of the animals was quantified to determine whether there was any modification throughout the treatment.

In data set [6] the test system is MCF-7 cells. As to the kind of experiment: MTT proliferation assay, MCF-7. As to conditions: 10^−7 M, 48 hours, 100% control cells.
Procedure: Proliferation assay in the MCF-7 cell line of human breast adenocarcinoma. […] The values were plotted in the graphs as mean±SD. As proliferation value, 100% was considered the normal growth of MCF-7 cells treated with the carrier in the control.
(§2) The cells were cultured in 90-mm plates in essential culture medium DMEM, supplemented with 10% bovine foetal serum free of steroid hormones, 100 U/ml penicillin, 100 μg/ml streptomycin and 2 mM non-essential amino acids (L-glutamine) at 37° C. in a humid atmosphere O2/CO2 (95/5%).
Cell proliferation/toxicity in breast cancer lines was assessed by both incorporation assays of 3-(4,5-dimethylthiazol-2-yl)-2,5-difeniltetrazolium (MTT) bromide and cell culture in three dimensions (3D).
(§3) The first is an indirect method for determining living cells, wherein the yellow water soluble MTT is reduced in mitochondria, thus generating a purple insoluble product (formazan). […] After this time, the culture medium was removed and 500 μl of dimethylsulfoxide (DMSO) was added to each well to solubilise the formazan incorporated by the cells.

The source of these data is patent publication US9663429B2, “Vitamin D analogues of pharmaceutical interest” (UNIVERSIDADE DE SANTIAGO DE COMPOSTELA, priority 2013, dated 2017).

pEC50, pIC50: −log10 of the molar value.

Procedure for HaCaT cells: Proliferation assay in the HaCaT cell line of human keratinocytes. […] The values were plotted in the graphs as mean±SD. As proliferation value, 100% was considered the normal growth of HaCaT cells treated with the carrier in the control.
as §2, §3
Procedure for PC-3 cells: Proliferation assay in the PC-3 cell line of human prostate adenocarcinoma. […] The values were plotted in the graphs as mean±SD. As proliferation value, 100% was considered the normal growth of PC-3 cells treated with the carrier in the control.
as §2, §3
Procedure for SKOV-3 cells: Proliferation assay in the SKOV-3 cell line of human ovary adenocarcinoma. […] The values were plotted in the graphs as mean±SD. As proliferation value, 100% was considered the normal growth of SKOV-3 cells treated with the carrier in the control.
as §2, §3

As to `C=C1/C(=C\C=C(/CC)c2cccc(CCCCCC(C)(C)O)c2)C[C@@H](O)C[C@@H]1O` [PG-136p, (1R,3S,Z)-5-((E)-3-(3-(6-hydroxy-6-methylheptyl)phenyl)pent-2-enyliden)-4-methylenecyclohexane-1,3-diol], the “Cell proliferation percentage SKOV-3 2D” value with SKOV-3 cells was determined as 78%. Further, the negative logarithm of the EC50 (pEC50) (in general, −log10 of the EC50, conventionally taken in molar units) in [1] (Homo sapiens, MCF7, 24 h, read-out: Transcriptional activity EC50) was 8.22. In [1] (MCF-7 cells, pCYP24A1-Luc), the “Transcriptional activity % relative to 1,25D (100%)” value came to 33%. In data set [2] (0.3 μg/Kg ip every 2 days for 21 days), the “Hypercalcemia (serum calcium versus control)” value was “does not produce hypercalcemia”. Also, the “Calcaemic activity: blood calcium in percentage over that induced by 1,25D” value in data set [2] (ip every two days for 21 days, 0.3 μg/kg (table title prints 0.3 mg/kg)) is on record as 0%. For the same compound, the “Cell proliferation percentage PC-3 2D” value in the data set on PC-3 cells was found to be 78%. The “Three-dimensional growth of MCF-7 spheroids (in words)” value in the data set with MCF-7 cells [3] (10^−7 M for 7 days) is “inhibit the three-dimensional growth, similarly to 1,25D”. The “Cell proliferation percentage MCF-7 3D” value in the data set with MCF-7 cells [3] (10^−7 M, matrigel spheroids, 100% control cells) came to 69%. Moreover, the “Binding to VDR % relative to 1,25D (100%)” value on vitamin D receptor (VDR) (activity relative to natural hormone 1,25D normalised at 100%) is 24%. Besides, on vitamin D receptor (VDR) (competitive displacement, 10^−11 to 10^−5 M), the pIC50 (commonly the negative decadic logarithm of the IC50, by convention in mol/L) is 8.15. The “Tumour volume versus control group” value is reported as “smaller volume” with MDA-MB-231-Luc cells (5 μ/kg ip every 2 days for 28 days, p≦0.0001) and “smaller volume” in the data set with MCF-7-Luc cells. Besides, the “Survival rate versus control mice (Kaplan-Meier)” value in the data set with MDA-MB-231-Luc cells (until day 60, p=0.042) is “higher survival rate”. The “Serum calcium versus control animals (placebo)” value in data set [4] (5 μg/kg weight ip every two days for 21 days) was “did not significantly raise serum calcium”. The “Serum calcium versus controls, analogues” value in data set [4] is “does not produce hypercalcemia”; in [4] (listed as PG136p), “None of the two analogues tested (PG136p and PG-403) induces increased serum calcium”. Moreover, the “Cell proliferation percentage HaCaT 2D” value in the data set with HaCaT cells was found to be 68%. Also, the “Body weight versus control animals, analogues” value in data set [5] is “does not change the body weight”; in [5] (listed as PG136p) it was “did not significantly affect the body weight”. For the same compound, in the data set with MCF-7 cells [6], the “Cell proliferation percentage MCF-7 2D” value is 65%.
